Results published in patent US20140045758A1, “Methods for Treating and Preventing Cardiac Dysfunction in Septic Shock” (THE TRUSTEES OF COLUMBIA UNIVERSITY IN THE CITY OF NEW YORK, priority 2011, published 2014).
Where “and” joins values, the source holds several entries; their conditions need not be identical. Equal values may be shown once. Entries after “also recorded” stand apart in the source; their conditions may differ.

Tests used:
C57BL/6 mice [1] = assay: LPS-mediated sepsis: cardiac function by 2D echocardiography (fractional shortening); assay type: in vivo
Description: (§1) LPS (5 mg/kg) (Sigma) was administered intraperitoneally (i.p.) in mice. Control mice were treated with equal volume of saline. Cardiac function was assessed by 2D echocardiography 5-6 hours post-LPS administration and mice were sacrificed 2-3 hours later (7-9 hours post-LPS injection).
(§2) Two-dimensional echocardiography was performed on conscious 10 to 12 week-old male and female (n=5-8 per group) mice (Sonos5500 system; Philips Medical Systems).^129Echocardiographic images were recorded in a digital format. Images were then analyzed off-line by a single observer blinded to the murine genotype.^130

hearts of C57BL/6 mice [2] = assay: Cardiac mRNA levels by quantitative real-time PCR after LPS; assay type: in vivo
Description: as §1
(§3) Total RNA was purified from cells or hearts using the TRIzol reagent according to the instructions of themanufacturer (Invitrogen). cDNA was synthesized using the SuperScript III First-Strand Synthesis SuperMix (Invitrogen). cDNA was analyzed with quantitative real-time PCR that was performed with SYBR Green PCRCore Reagents (Stratagene). Incorporation of the SYBRgreen dye into the PCR products was monitored in real time withan Mx3000 sequence detection system (Stratagene). Samples were normalized against β-actin.

[3] = tested on: cardiac muscle of C57BL/6 mice; assay: FA oxidation ([3H]palmitate oxidation) in heart pieces; assay type: in vivo; conditions: LPS 5 mg/kg, 6-8 h
Description: as §1

hearts of C57BL/6 mice [4] = assay: Cardiac ATP measurement; assay type: in vivo; conditions: LPS 5 mg/kg, 6-8 h
Description: as §1

hearts of C57BL/6 mice [5] = assay: Western blot of pJNK, p-cJun and pAMPK in hearts; assay type: in vivo; conditions: LPS 5 mg/kg; controls (label LPS) or animals given rosiglitazone 35 mg/kg (label rosiglitazone)
Description: as §1
(§4) Isolated heart tissues or cells were homogenized in PBS containing protease inhibitors and phosphatase inhibitors (Roche, Indianapolis, Ind.). Membrane and cytosolic fractions were separated by ultracentrifugation.20 μg from each fraction was applied to SDS-PAGE and transferred onto nitrocellulose membranes. Antibodies were obtained from Santa Cruz (JNK) and Cell Signaling (phospho-JNK, phospho-AMPK^Thr 172 and total AMPK).

C57BL/6 mice [6] = assay: Assessment of survival after lethal dose of LPS; assay type: in vivo
From the text: Control animals received saline and DMSO instead of LPS and rosiglitazone, respectively.

αMHC-PPARγ mice = assay: LPS in αMHC-PPARγ mice: 2D echocardiography (fractional shortening); assay type: in vivo; conditions: LPS-treated αMHC-PPARγ mice
Description: (§5) All procedures involving animals were approved by the Institutional Animal Care and Use Committee at Columbia University. Mice were maintained under appropriate barrier conditions in a 12 hr light-dark cycle and received food and water ad libitum. The animals that were used for this study were C57BL/6 mice and mice expressing specifically in cardiomyocytes peroxisome proliferator activating receptor-γ (αMHC-PPARγ) that are also on the C57BL/6 background. All studies were performed on the different genotypes with littermates as controls. Hearts from these mice were harvested, flash frozen and stored at −80° C. until further use. All analyses involving animals were performed with at least 5 mice per experimental group.
as §1, §2

[7] = tested on: hearts of αMHC-PPARγ mice; assay: Cardiac mRNA levels in LPS-treated αMHC-PPARγ mice; assay type: in vivo
Description: as §5, §1, §3

[8] = tested on: cardiac muscle of αMHC-PPARγ mice; assay: [3H]palmitic acid oxidation in cardiac muscle of αMHC-PPARγ mice; assay type: in vivo; conditions: LPS-treated vs saline-treated αMHC-PPARγ mice
Description: as §1
FA oxidation was measured in pieces of hearts isolated from 10-12 week old mice. The heart pieces were incubated at 37° C. for 2 h in modified Krebs-Ringerbuffer (MKR: 115 mM NaCl, 2.6 mM KCl, 1.2 mM KH2PO4, 10 mM NaHCO3,10 mM HEPES, pH 7.4) that contained 2% BSA, […] palmitate and 10 μCi/ml 9,10(n)-[^3H]-palmitate and was gassed with 95% O2 and 5% CO2. Water was then extracted with chloroform:methanol (2:1) extraction. Palmitate oxidation was determined by measuring the amount of ^3H2O in the aqueous phase.

[9] = tested on: hearts of αMHC-PPARγ mice; assay: Cardiac ATP levels in αMHC-PPARγ mice; assay type: in vivo; conditions: LPS-treated αMHC-PPARγ mice
Description: as §1
Cardiac pieces of 10 mg were used to determine ATP levels. Heart pieces were dissolved in ice-cold 0.1% trichloro-acetic acid and centrifuged. Supernatant was resuspended in 50 mM Tris-acetate containing 2 mM EDTA, pH 7.8 and a portion was used to measure ATP. The measurement was performed with the ATP determination kit (Invitrogen) according to the instructions of the manufacturer.

[10] = tested on: hearts of αMHC-PPARγ mice; assay: Western blot of pAMPK and pJNK in hearts of αMHC-PPARγ mice; assay type: in vivo
Description: as §1, §4

AC16 cells = assay: PPARα gene expression in LPS-treated human cardiomyocyte cell line; assay type: cell-based; conditions: LPS treatment alone
From the text: A human ventricular cardiomyocyte-derived cell line, designated AC-16, was kindly provided by M. M. Davidson.^126 Cells were maintained in Dulbecco's Modified Eagle Medium: Nutrient Mixture F-12 (Ham) (DMEM:F12) (Invitrogen) supplemented with fetal bovine serum (10%) and a mixture of penicillin and streptomycin (1%). Prior to infection with recombinant adenoviruses the medium was changed to 2% heat inactivated horse serum and the cells were infected in at least duplicates with control adenovirus that expresses the Green Fluorescent Protein (Ad-GFP) or the adenovirus expressing the constitutively active form of JNK2 (Ad-JNK2α2) at a multiplicity of infection (MOI) of 10. […] To assess gene expression 48 hours post incubation, cell lysates were collected and analyzed for mRNA and protein expression.
as §3, with “Samples were normalized against β-actin.” left out

[11] = tested on: cardiac tissue from C57BL/6 mice; assay: Electron microscopy of cardiac mitochondria; assay type: in vivo; conditions: LPS vs saline
From the text: Left ventricles from 3-month-old mice were fixed with 2.5% glutaraldehyde in 0.1 M Sorensen's buffer (0.2 M monobasic phosphate/0.2 M dibasic phosphate, 1:4 vol/vol; pH 7.2), postfixed in osmium tetroxide, and embedded in EPON 812 (Electron Microscopy Sciences). Ultrathin sections were stained with uranyl acetate and lead citrate and examined under a JEM-1200ExII electron microscope (JEOL).

[12] = tested on: cardiac RNA from LPS-treated mice; assay: MiR array analysis of cardiac RNA; assay type: in vivo
From the text: The next experiment assessed whether the cardiac miR (microRNA) profiles of LPS-treated mice resemble the respective profiles in heart failure. (FIG. 5(A)-(C)).

C57BL6 mice = assay: Plasma IL-6 protein levels after LPS; assay type: in vivo; conditions: LPS 5 mg/kg, 6-8 h
Description: An animal model of cardiac septic shock was reproduced by treating 10 week old C57BL6 mice with LPS (5 mg/kg of body) for 6-8 h.

hearts of C57BL/6 mice [13] = assay: Cardiac mRNA levels by quantitative real-time PCR after LPS; assay type: in vivo; conditions: LPS 5 mg/kg, 6-8 h
[14] = cited from earlier work; for hepatic damage: long term use
patients = conditions: human, in vivo, 3 mg/kg/day; cited from earlier work
[15] = LPS 15 mg/kg, + DMSO (15 mice, F) or + rosiglitazone 33 mg/kg/day (17 mice, M)
[16] = Saline (no LPS) + rosiglitazone 33 mg/kg/day, 8 mice, M

lipopolysaccharide [LPS]
reduction in fractional shortening (C57BL/6 mice [1]; LPS 5 mg/kg alone vs saline, 2D-echocardiography): 50% | fractional shortening, effect of LPS (C57BL/6 mice [1]; LPS 5 mg/kg of body, 6-8 h, 10 week old mice): reduced fractional shortening | PDK4 mRNA increase (hearts of C57BL/6 mice [2]; LPS 5 mg/kg alone): 16 fold | cardiac AOX mRNA, increased by (hearts of C57BL/6 mice [2]; LPS 5 mg/kg alone): 42% | cardiac PPARα mRNA levels, reduced by (hearts of C57BL/6 mice [2]; LPS 5 mg/kg alone): 78% | cardiac perilipin 2 mRNA, increased by (hearts of C57BL/6 mice [2]; LPS 5 mg/kg alone): 3.3 | cardiac IL-1α mRNA increase (hearts of C57BL/6 mice [2]; LPS 5 mg/kg alone, qRT-PCR): 90 fold | cardiac IL-6 mRNA increase (hearts of C57BL/6 mice [2]; LPS 5 mg/kg alone, qRT-PCR): 1250 fold | cardiac TNFα mRNA increase (hearts of C57BL/6 mice [2]; LPS 5 mg/kg alone, qRT-PCR): 26 fold | cardiac PPARγ (mRNA) levels, increased by (hearts of C57BL/6 mice [2]; LPS alone, normal C57BL/6 mice): ~60% and 57% | gene expression levels of αMHC and βMHC (hearts of C57BL/6 mice [2]; LPS, hearts of C57BL/6 mice): reduces both αMHC and βMHC | switch from α-MHC isoform to β-MHC (cardiac mRNA) (hearts of C57BL/6 mice [2]; LPS-treated mice): did not indicate such change | cardiac PPARδ mRNA (hearts of C57BL/6 mice [2]; any of the treatment groups (rosiglitazone 35 mg/kg, LPS 5 mg/kg, both)): not modulated | FAO, reduced by [3]: 61% | cardiac ATP, reduced by (hearts of C57BL/6 mice [4]): 44% | phospho-AMPK in heart after LPS (hearts of C57BL/6 mice [5]): not stimulated; also recorded: reduced phospho-AMPK | phosphorylation/activation of JNK (and c-Jun) in heart after LPS (hearts of C57BL/6 mice [5]): induced phosphorylation of JNK; also recorded: activated | Survivors 24 h (C57BL/6 mice [6]; [15]): 14 | Survivors 36 h (C57BL/6 mice [6]; [15]): 14 | Survivors 48 h (C57BL/6 mice [6]; [15]): 10 | Survivors 60 h (C57BL/6 mice [6]; [15]): 5 | Survivors 72 h (C57BL/6 mice [6]; [15]): 2 | start of dying post-injection (C57BL/6 mice [6]; LPS alone 15 mg/kg i.p.): 36 h | fractional shortening / cardiac function (αMHC-PPARγ mice): remained normal; also recorded: preserved | UCP2 mRNA increase ([7]; LPS): 23.7 fold | UCP3 mRNA increase ([7]; LPS): 17.4 fold | PDK4 mRNA increase ([7]; LPS 5 mg/kg): 5.4 fold | cardiac CD36 gene expression, reduced by ([7]; LPS 5 mg/kg): 93% | cardiac IL-1α mRNA increase ([7]; LPS 5 mg/kg): 23.1 fold and 23 fold | cardiac IL-6 mRNA increase ([7]; LPS 5 mg/kg): 288 fold and 285 fold | cardiac PGC-1β gene expression, reduced by ([7]; LPS 5 mg/kg): 76% | cardiac TNFα mRNA increase ([7]; LPS 5 mg/kg): 12.5 fold | estrogen-related receptor (ERR)α mRNA ([7]; LPS 5 mg/kg): not modulated | perilipin 2 mRNA ([7]; LPS 5 mg/kg): not modulated | perilipin 5 mRNA, reduced by ([7]; LPS 5 mg/kg): 50% | AOX mRNA increase ([7]; LPS 5 mg/kg vs saline): 27.1 fold | Cpt1β mRNA increase ([7]; LPS 5 mg/kg vs saline): 14.3 fold | PGC-1α mRNA increase ([7]; LPS 5 mg/kg vs saline): 30.1 fold | PPARγ mRNA increase ([7]; LPS 5 mg/kg vs saline): 31.6 fold | PPARδ mRNA increase ([7]; LPS 5 mg/kg vs saline): 31.6 fold | cardiac PPARα mRNA reduction ([7]; LPS 5 mg/kg vs saline): 77% and 78% | levels of FAO, increase [8]: 2.6 fold | cardiac ATP content [9]: significantly increased | cardiac ATP levels, increase [9]: 2.2 fold | JNK activation ([10]; LPS 5 mg/kg, αMHC-PPARγ mice): activated JNK | phosphorylated AMPK levels ([10]; LPS-treated αMHC-PPARγ mice): reduced | PPARα expression in human cardiomyocyte cell line (AC16 cells): reduces PPARα expression | morphology and intracellular arrangement of mitochondria [11]: did not affect | miRs associated with heart failure (miR-1, -133, -208, -195, -24, -125b, -199a, 214) affected [12]: none | plasma IL-6 protein levels (C57BL6 mice): increased | cardiac gene expression of inflammation-associated genes (IL-1α, IL-6 and TNFα) (hearts of C57BL/6 mice [13]): increased | mRNA levels for cardiac PPARα, CD36, LpL, FATP, Cpt1β, PGC-1α and PGC-1β (hearts of C57BL/6 mice [13]): reduced

Cc1c(C)c2c(c(C)c1O)CCC(C)(COc1ccc(CC3SC(=O)NC3=O)cc1)O2 (stereo not shown) [troglitazone]
hepatic damage [14]: cause hepatic damage with long term use

CN(CCOc1ccc(CC2SC(=O)NC2=O)cc1)c1ccccn1 (stereo not shown) [rosiglitazone]
Survivors 24 h (C57BL/6 mice [6]; [15]): 17 | Survivors 36 h (C57BL/6 mice [6]; [15]): 16 | Survivors 48 h (C57BL/6 mice [6]; [15]): 16 | Survivors 60 h (C57BL/6 mice [6]; [15]): 15 | Survivors 72 h (C57BL/6 mice [6]; [15]): 13 | Survivors 24 h (C57BL/6 mice [6]; [16]): 8 | Survivors 36 h (C57BL/6 mice [6]; [16]): 8 | Survivors 48 h (C57BL/6 mice [6]; [16]): 8 | Survivors 60 h (C57BL/6 mice [6]; [16]): 8 | Survivors 72 h (C57BL/6 mice [6]; [16]): 8 | hepatic damage [14]: cause hepatic damage with long term use

CCc1ccc(CCOc2ccc(CC3SC(=O)NC3=O)cc2)nc1 (stereo not shown) [Pioglitazone, pioglitazone]
deleterious effects on blood lipids ([14]; in vivo): fewer deleterious effects on blood lipids

Cc1cccc(Nc2cc(Cl)nc(SCC(=O)O)n2)c1C [WY-14643]
improved fractional shortening by (C57BL/6 mice [1]; LPS 5 mg/kg + WY-14643 30 mg/kg, trend, p=0.09): 25%

Oblimersen
adverse effects in patients (patients): no severe adverse effects
